Measured values reported in PMC5833756, “A novel ruthenium complex with xanthoxylin induces S-phase arrest and causes ERK1/2-mediated apoptosis in HepG2 cells through a p53-independent pathway” (Cell Death & Disease, 2018).
pIC50: −log10 of the molar value. Values joined by “and” are separate entries in the source; they are usually repeats but may differ in a detail not shown here. Equal entries are not always repeated. Where two headings read alike, the source gives them in different places.

Legend:
[1] = system: HepG2 cells; assay: Gene expression analysis by qPCR array (TaqMan Array Human Molecular Mechanisms of Cancer); assay type: cell-based; details: HepG2, 12 h; RCX 12 µM, DOX 2 µM
Experimental: HepG2 cells were plated in bottles for cell culture (7 × 10^4 cells/mL). […] The RNA was evaluated by fluorimetry using QuBit (Life Technologies; Camarillo, CA, USA). RNA reverse transcription was performed using a Superscript VILO™ Kit (Invitrogen Corporation; Waltham, MA, USA). A 96-well plate TaqMan® Array Human Molecular Mechanisms of Cancer (ID 4418806, Applied Biosystems^TM, Foster City, CA, USA) was used for the gene expression study by qPCR. The reactions were conducted in an ABI ViiA7 system (Applied Biosystems^TM; Foster City, CA, USA). The cycle conditions comprised 2 min at 50 °C, 20 s at 95 °C, then 40 cycles of 3 s at 95 °C and 30 s at 60 °C. The relative quantification (RQ) of mRNA expression was calculated by the 2^-ΔΔCT method[40] using Gene Expression Suite™ Software (Applied Biosystems^TM), and the cells treated with the negative control (0.2% DMSO) were used as a calibrator. The reactions were normalized by the geometric mean of the RQ of the reference genes GAPDH, 18S and HPRT1. All experiments were performed in DNase/RNase-free conditions.

[2] = system: BAD KO SV40 MEF; assay type: cell-based, mouse; details: 72 h
[3] = system: AGP-01; details: AGP-01 (human ascitic gastric adenocarcinoma), 72 h
[4] = system: MCF-7; assay type: cell-based, human; details: MCF-7 (human breast adenocarcinoma), 72 h
[5] = system: HepG2 cells; assay type: cell-based, human
Experimental: Briefly, the cells were harvested in a permeabilization solution containing 0.1% Triton X-100, 2 µg/mL PI, 0.1% sodium citrate and 100 µg/mL RNAse (all from Sigma-Aldrich) and incubated in the dark for 15 min at room temperature. Finally, cell fluorescence was measured by flow cytometry with a BD LSRFortessa cytometer using BD FACSDiva Software (BD Biosciences) and FlowJo Software 10 (FlowJo Lcc; Ashland, OR, USA). Ten thousand events were evaluated per experiment, and cellular debris was omitted from the analysis.

[6] = system: ACP-02; assay type: cell-based, human
[7] = HepG2, 12 h, DOX 2 µM, OXA 10 µM, RCX 12 µM
[8] = HepG2, 24 h, DOX 2 µM, OXA 10 µM, RCX 12 µM
[9] = HepG2, 48 h, DOX 2 µM, OXA 10 µM, RCX 12 µM
[10] = HepG2, 72 h, DOX 2 µM, OXA 10 µM, RCX 12 µM

COc1cc([O-])c(C(C)=O)c(OC)c1.F[P-](F)(F)(F)(F)F.[Ru+2].c1cnc2c(c1)ccc1cccnc12.c1cnc2c(c1)ccc1cccnc12 [RCX, cis-[Ru(phen)2(xant)](PF6)]
RQ ABL1 gene expression [1]: 1.908
RQ AKT1 gene expression [1]: 1.685
RQ AKT2 gene expression [1]: 2.7 and 2.697
RQ APC gene expression [1]: 1.106
RQ BAX gene expression [1]: 0.887
RQ BCAR1 gene expression [1]: 2.9 and 2.846
RQ BCL2L1 gene expression [1]: 0.898
RQ BCL2L11 gene expression [1]: 9.8 and 9.786
RQ BCL2 gene expression [1]: 2.4 and 2.377
RQ BID gene expression [1]: 1.477
RQ BRAF gene expression [1]: 2.3 and 2.296
RQ CASP8 gene expression [1]: 1.493
RQ CCND1 gene expression [1]: 4.8 and 4.752
RQ CCND3 gene expression [1]: 2.4 and 2.397
RQ CCNE1 gene expression [1]: 0.674
RQ CDC42 gene expression [1]: 4.2 and 4.147
RQ CDH1 gene expression [1]: 1.051
RQ CDK2 gene expression [1]: 1.251
RQ CDK4 gene expression [1]: 2.7 and 2.737
RQ CDKN1A gene expression [1]: 0.628
RQ CDKN1B gene expression [1]: 0.5 and 0.543
RQ CDKN2A gene expression [1]: 3.8 and 3.836
RQ CRK gene expression [1]: 6.2 and 6.172
RQ CTNNB1 gene expression [1]: 1.930
RQ CYCS gene expression [1]: 1.927
RQ DVL1 gene expression [1]: 2.7 and 2.712
RQ E2F1 gene expression [1]: 7.1 and 7.081
RQ EGFR gene expression [1]: 2.0 and 1.985
RQ ELK1 gene expression [1]: 5.2 and 5.179
RQ ERBB2 gene expression [1]: 2.2 and 2.186
RQ FADD gene expression [1]: 1.854
RQ FAS gene expression [1]: 2.9 and 2.845
RQ FGF2 gene expression [1]: 5.5 and 5.503
RQ FOS gene expression [1]: 1.472
RQ FYN gene expression [1]: 2.2 and 2.240
RQ FZD1 gene expression [1]: 4.8 and 4.807
RQ GRB2 gene expression [1]: 0.855
RQ GSK3B gene expression [1]: 0.999
RQ HRAS gene expression [1]: 2.1 and 2.071
RQ IGF1R gene expression [1]: 1.052
RQ ITGA2B gene expression [1]: 5.4 and 5.437
RQ ITGAV gene expression [1]: 1.126
RQ ITGB1 gene expression [1]: 1.547
RQ ITGB3 gene expression [1]: 1.478
RQ JUN gene expression [1]: 4.5 and 4.475
RQ KRAS gene expression [1]: 4.8 and 4.786
RQ MAP2K1 gene expression [1]: 2.6 and 2.591
RQ MAP3K5 gene expression [1]: 1.752
RQ MAPK1 gene expression [1]: 2.1 and 2.124
RQ MAPK3 gene expression [1]: 1.762
RQ MAPK8 gene expression [1]: 1.293
RQ MAPK14 gene expression [1]: 3.0 and 3.025
RQ MDM2 gene expression [1]: 3.2 and 3.153
RQ MYC gene expression [1]: 4.3 and 4.304
RQ NFKB1 gene expression [1]: 2.2 and 2.156
RQ NFKB2 gene expression [1]: 3.6 and 3.621
RQ NFKBIA gene expression [1]: 1.342
RQ NRAS gene expression [1]: 1.862
RQ PIK3CA gene expression [1]: 1.265
RQ PIK3R1 gene expression [1]: 1.408
RQ PTEN gene expression [1]: 0.644
RQ PTK2B gene expression [1]: 0.803
RQ PTK2 gene expression [1]: 2.0 and 2.034
RQ RAC1 gene expression [1]: 1.199
RQ RAF1 gene expression [1]: 4.7 and 4.645
RQ RB1 gene expression [1]: 0.795
RQ RELA gene expression [1]: 2.4 and 2.403
RQ RHOA gene expression [1]: 1.541
RQ SHC1 gene expression [1]: 3.7 and 3.702
RQ SMAD4 gene expression [1]: 3.6 and 3.549
RQ SOS1 gene expression [1]: 5.0 and 4.992
RQ SRC gene expression [1]: 1.833
RQ TCF3 gene expression [1]: 3.2 and 3.166
RQ TGFB1 gene expression [1]: 1.267
RQ TGFBR1 gene expression [1]: 1.352
RQ TGFBR2 gene expression [1]: 1.069
RQ TP53 gene expression [1]: 0.5 and 0.471
RQ VEGFA gene expression [1]: 3.8 and 3.759
pIC50 [2]: 5.39
pIC50 [3]: 5.28
pIC50 [4]: 4.65
DNA content G0/G1 [5, 7]: 66.4 ± 4.0%
DNA content G2/M [5, 7]: 13.3 ± 1.1%
DNA content S [5, 7]: 18.0 ± 7.4%
DNA content Sub-G0/G1 [5, 7]: 9.6 ± 1.1 %
DNA content G0/G1 ([5]; HepG2, 12 h, RCX 24 µM): 68.9 ± 2.2%
DNA content G2/M ([5]; HepG2, 12 h, RCX 24 µM): 13.9 ± 1.6%
DNA content S ([5]; HepG2, 12 h, RCX 24 µM): 8.6 ± 4.5%
DNA content Sub-G0/G1 ([5]; HepG2, 12 h, RCX 24 µM): 13.0 ± 2.5 %
DNA content G0/G1 [5, 8]: 38.2 ± 1.2 %
DNA content G2/M [5, 8]: 17.6 ± 0.9%
DNA content S [5, 8]: 22.4 ± 0.7 %
DNA content Sub-G0/G1 [5, 8]: 15.3 ± 0.6 %
DNA content G0/G1 ([5]; HepG2, 24 h, RCX 24 µM): 29.9 ± 2.7 %
DNA content G2/M ([5]; HepG2, 24 h, RCX 24 µM): 13.0 ± 1.3%
DNA content S ([5]; HepG2, 24 h, RCX 24 µM): 13.0 ± 1.6%
DNA content Sub-G0/G1 ([5]; HepG2, 24 h, RCX 24 µM): 34.7 ± 1.4 %
DNA content G0/G1 [5, 9]: 23.3 ± 2.0 %
DNA content G2/M [5, 9]: 9.0 ± 0.8 %
DNA content S [5, 9]: 11.5 ± 2.7%
DNA content Sub-G0/G1 [5, 9]: 44.1 ± 6.3 %
DNA content G0/G1 ([5]; HepG2, 48 h, RCX 24 µM): 18.9 ± 3.0 %
DNA content G2/M ([5]; HepG2, 48 h, RCX 24 µM): 6.5 ± 0.7 %
DNA content S ([5]; HepG2, 48 h, RCX 24 µM): 10.3 ± 1.3%
DNA content Sub-G0/G1 ([5]; HepG2, 48 h, RCX 24 µM): 62.6 ± 3.4 %
DNA content G0/G1 [5, 10]: 23.6 ± 1.9 %
DNA content G2/M [5, 10]: 11.1 ± 1.8%
DNA content S [5, 10]: 13.2 ± 0.8%
DNA content Sub-G0/G1 [5, 10]: 42.6 ± 6.8 %
DNA content G0/G1 ([5]; HepG2, 72 h, RCX 24 µM): 19.7 ± 3.3 %
DNA content G2/M ([5]; HepG2, 72 h, RCX 24 µM): 6.7 ± 0.7%
DNA content S ([5]; HepG2, 72 h, RCX 24 µM): 4.9 ± 1.1 %
DNA content Sub-G0/G1 ([5]; HepG2, 72 h, RCX 24 µM): 68.2 ± 3.7 %
selectivity index (SI) [6]: 0.3
pIC50 ([6]; ACP-02 (human gastric adenocarcinoma), 72 h): 4.74
